From patent publication EP4464714A1, “SCREENING METHOD FOR CELL-REPELLING PEPTIDES” (Karlsruher Institut für Technologie, priority 2023, dated 2024)
“Also recorded” adds a separate entry of the source. Read-outs that look alike come from different tables or passages of the source.

Key:
[1] = test system: SW620 colorectal cancer cells expressing the TOP-GFP construct; experiment: Formation of cell patterns on alternating peptide patterns, continuous fluorescence detection (live cell imaging); assay type: cell-based; conditions: patterns of 3 sp × 3 sp and 1 sp (30 µm); up to 24 hours of incubation; Fig. 10
Description: The settlement of cells on alternating patterns of the cell-repellent and cell-adhesive peptides IAMTPPNATEASKPQ and FLCSLFAPVCLDRPI, respectively, were examined over time (Fig. 10). […] Peptide patterns in the form of the letters KI were made of squares of 3 sp × 3 sp. The cellular patterns are clearly distinguishable as long as the area of the cell-repellent peptide has a size of 30 µm in diameter (1 sp). To follow the formation of such cellular patterns, the behaviour of cells was examined over time (continuous fluorescence detection). Fig. 10b, 10c, 10d and 10e show the different states of the same chip fragment with cell-repellent peptides at different incubation times. Relatively quickly, in the first minutes after seeding, cells randomly distribute over the entire surface (Fig. 10b) and start to form clusters (Fig. 10c), which adhere to the bottom. After that, the cell clusters leave the area of peptides with cell repulsion (Fig. 10d). […]
On the day of incubation, cells were detached using Accutase followed by selection in serum-containing medium (DMEM). […] After 24 hours, the plates were either analysed using confocal microscopy or fixed.
For imaging of the cells, a Zeiss LSM800 confocal microscope was used. […] The microscopic slide was then transferred to a live cell incubation chamber (37°C) and observed via continuous fluorescence detection for a period of 24 hours.

[2] = test system: pancreatic tumour; conditions: human (1) or murine (2) background; Matzke-Ogi et al. 2016; cited from earlier work
[3] = test system: CD44v6; conditions: human (1) background; Matzke-Ogi et al. 2016; cited from earlier work
[4] = test system: SW620 colorectal cancer cells expressing the TOP-GFP construct; experiment: High-throughput screening for cell repulsion/adhesion on a high-density peptide chip, fluorescence detection; assay type: cell-based; conditions: incubated for 24 hours on the peptide chip; for cell adhesion / cell repulsion on peptide spots, measured by the strength of the fluorescent signal: 1×10^7 cells in 3 ml, 30 µm × 30 µm spots
[5] = test system: CD44v6; conditions: murine (2) background; Matzke-Ogi et al. 2016; cited from earlier work

FLCSLFAPVCLDRPI
settlement of cells on alternating peptide patterns over time [1]: cell-adhesive

NRWHE
pancreatic tumour growth and metastasis [2]: inhibit pancreatic tumour growth and metastasis
co-receptor function of CD44v6 of the receptor tyrosine kinase MET [3]: inhibit the co-receptor function of CD44v6

KEQWFGNRWHEGYR
pancreatic tumour growth and metastasis [2]: inhibit pancreatic tumour growth and metastasis
co-receptor function of CD44v6 of the receptor tyrosine kinase MET [3]: inhibit the co-receptor function of CD44v6

AIKNLPPPTKGQEGS
cell adhesion / cell repulsion on peptide spots, measured by the strength of the fluorescent signal [4]: strongest cell-repellent properties

EVK
cell adhesion / cell repulsion on peptide spots, measured by the strength of the fluorescent signal [4]: repellent motif for cells

QETWF
cell adhesion / cell repulsion on peptide spots, measured by the strength of the fluorescent signal [4]: top ten cell-repellent peptides

TPPNATEASKPQGTT
cell adhesion / cell repulsion on peptide spots, measured by the strength of the fluorescent signal [4]: strongest cell-repellent properties

YPYDVPDYA [HA epitope, reference compound]
cell adhesion / cell repulsion on peptide spots, measured by the strength of the fluorescent signal [4]: strong cell-attractive; also recorded: highest adhesion to cells

SDKKPVAHVVANPQAE [SEQ ID No. 11]
cell adhesion / cell repulsion on peptide spots, measured by the strength of the fluorescent signal [4]: repulsive

PCQRETPEGAEAKP [SEQ ID No. 13]
cell adhesion / cell repulsion on peptide spots, measured by the strength of the fluorescent signal [4]: repulsive

KENGDKKIVPKKKKP
cell pattern (filling of peptide spots) ([4]; Fig. 2): well-defined island shape

NGWQG
pancreatic tumour growth and metastasis [2]: inhibit pancreatic tumour growth and metastasis
co-receptor function of CD44v6 of the receptor tyrosine kinase MET [5]: inhibit the co-receptor function of CD44v6

QETWFQNGWQGKNP
pancreatic tumour growth and metastasis [2]: inhibit pancreatic tumour growth and metastasis
co-receptor function of CD44v6 of the receptor tyrosine kinase MET [5]: inhibit the co-receptor function of CD44v6

QNGNQGKN
cell adhesion / cell repulsion on peptide spots, measured by the strength of the fluorescent signal [4]: strong cell repulsion

QETWFQNGNQGKN [modified peptide of …, replacement of the amino acid W by N]
cell adhesion / cell repulsion on peptide spots, measured by the strength of the fluorescent signal [4]: maximum cell repulsion

IAMTPPNATEASKPQ
settlement of cells on alternating peptide patterns over time [1]: cell-repellent

HPGSAVSASNAIKNL
cell adhesion / cell repulsion on peptide spots, measured by the strength of the fluorescent signal [4]: strongest cell-repellent properties
